# Read-outs that look alike come from different tables or passages of the source.
# Experiments:
# HeLa cells [1] = assay: Cytotoxicity assay (MTT assay) on HeLa cells; conditions: for IC50: Homo sapiens, HeLa
# Description: HeLa cell line was obtained from Dr. S. S. Shen (Biomedical Engineering Research Laboratories of Industrial Technology Research Institute of Taiwan). HeLa cells are adherent cells and were propagated and maintained in Dulbecco's modified Eagle's medium (DMEM) supplemented with 10% fetal bovine serum (FBS), […] sodium bicarbonate (NaHCO3), 1 mM sodium pyruvate, and 0.1 mM non-essential amino acid.
# Cytotoxicity Assay (MTT Assay)
# The cytotoxicity of the compounds set forth herein to HeLa cells and HUVEC cells were determined by the MTT assay. The HUVEC cells were used to understand the cytotoxicity of said compounds to normal human cells. Besides, doxorubicin HCl was used as a comparative example so as to investigate the efficacy of the compounds according to the embodiments of the present invention.
# Briefly, the MTT assay comprises the following steps: • (A) Cells were seeded in 96-well plates 3 hours before treatment, wherein the density of HeLa cell is 1×10^4 cells per well and the density of HUVEC cell is 2×10^4 cells per well; • (B) Cells were then treated with various concentrations of tested samples and incubated for a predetermined period (24, 48, and 72 hours); • (C) After the predetermined periods expired, the tested samples were removed and 100 μl MTT reagent (1 mg/ml) was added to each well; • (D) The plates were incubated at 37° C. with 5% of CO2 for 5 hours; • (E) The MTT reagent was removed and 100 μl DMSO was added to each well; • (F) The optical density (O.D.) of each well was determined by ELISA reader at a wavelength of 560 nm.
# Each experiment was repeated for 3 times and the result shown in the tables herein were the mean value of the 3 repetitions. The O.D. of the vehicle control and experimental groups were recorded. The cell survival rate of each sample was calculated as follows:
# Cell survival rate(%)=O.D.control/O.D.experimental*100%
# Then, the cell survival rate was plotted against the compound concentration and the IC50 value of each compound was calculated by the GraFit data analysis software (Erithacus Software Ltd.).
# HPV 16 pseudovirus = assay: Screening for anti-infection compounds (GFP-expressing HPV 16 pseudovirus infecting HeLa cells); type: cell-based, human papilloma virus 16; conditions: Pseudovirus, HeLa, 48 h, read-out: IC50 for inhibiting HPV 16 pseudoviruses
# Description: […] were co-transfected with codon-modified papillomavirus capsid genes, L1 and L2, plasmid: p16shell, and a GFP reporter plasmid, pClneo-GFP, to monitor the infectivity of the stock.
# The GFP-expressing HPV 16 pseudoviruses were prepared and harvested in accordance with the protocol provided by the National Cancer Institute (USA). Said protocol is available on line at http://home.ccr.cancer.gov/lco/production.asp which is incorporated herein by reference in its entirety.
# In the present application, the GFP-expressing HPV 16 pseudoviruses used have titers of about 4*10^8 infectious units per ml.
# HeLa cells were seeded in 96-well plates at a density of 6×10^3 cells per well. 24 hours later, 2×HPV 16 pseudoviruses of various volumes were added. The signal to background ratio of each volume of the HPV 16 pseudoviruses was illustrated in FIG. 2.
# When choosing screening platform, the infection rate should be around 20%. […] Under this dosage, the signal to background ratio is 2.0-2.5.
# (§1) Carrageenan was used as positive control. […] The cell survival rate and IC50 of each sample were obtained in accordance with the method stated above.
# HeLa cells [2] = assay: MTT assay within the anti-infection screening platform; type: cell-based, human; conditions: 48 hours, concentrations inhibiting HPV 16 pseudovirus
# Text: as §1
structure (smiles),measurement,setting,value
"O=C(O)c1cc(O)c(O)c(O)c1 [Compound D, gallic acid]",HeLa Cell Survival Rate,"HeLa cells [1]; 0.125 μg/ml, 24 hrs",85%
same,HeLa Cell Survival Rate,"HeLa cells [1]; 0.125 μg/ml, 48 hrs",96%
same,HeLa Cell Survival Rate,"HeLa cells [1]; 0.125 μg/ml, 72 hrs",101%
same,HeLa Cell Survival Rate,"HeLa cells [1]; 1.25 μg/ml, 24 hrs",84%
same,HeLa Cell Survival Rate,"HeLa cells [1]; 1.25 μg/ml, 48 hrs",91%
same,HeLa Cell Survival Rate,"HeLa cells [1]; 1.25 μg/ml, 72 hrs",103%
same,HeLa Cell Survival Rate,"HeLa cells [1]; 12.5 μg/ml, 24 hrs",90%
same,HeLa Cell Survival Rate,"HeLa cells [1]; 12.5 μg/ml, 48 hrs",82%
same,HeLa Cell Survival Rate,"HeLa cells [1]; 12.5 μg/ml, 72 hrs",99%
same,HeLa Cell Survival Rate,"HeLa cells [1]; 125 μg/ml, 24 hrs",17%
same,HeLa Cell Survival Rate,"HeLa cells [1]; 125 μg/ml, 48 hrs",11%
same,HeLa Cell Survival Rate,"HeLa cells [1]; 125 μg/ml, 72 hrs",8%
same,IC50,"HeLa cells [1]; 24 h, read-out: IC50 at 24 hours, HeLa",37 µg/mL
same,IC50,"HeLa cells [1]; 48 h, read-out: IC50 at 48 hours, HeLa",26 µg/mL
same,IC50,"HeLa cells [1]; 72 h, read-out: IC50 at 72 hours, HeLa",45 µg/mL
same,cytotoxicity to HeLa cells compared with Doxorubicin HCl,HeLa cells [1]; under the corresponding conditions,higher cytotoxicity
same,IC50,HPV 16 pseudovirus,8.9 µg/mL
same,survival rates of HeLa cells in anti-infection screening,HeLa cells [2],higher than 80%

# From patent US20090137661A1, “PLANT DERIVED COMPOUNDS AND COMPOUND FORMULAE CONTAINING THE SAME FOR THE TREATMENT OF CERVICAL CANCER” (priority 2007, published 2009)
